Measured values as given in PMC10728895, “Stapled Phd Peptides Inhibit Doc Toxin Induced Growth Arrest in Salmonella” (ACS Chemical Biology, 2023).
Positions of bridges follow the written chain, without caps; N, C: chain ends. Non-standard residues stand in square brackets, D forms with d. Residues, ends and D or L forms follow the SMILES beside them. *: point of attachment. 5FAM = O=C1OC2(c3ccc(O)cc3Oc3cc(O)ccc32)c2ccc(C(=O)*)cc21; S5 = C=CCCC[C@](C)(N)C(=O)O; Nle = CCCC[C@H](N)C(=O)O

Key:
DocSTm toxin = conditions: DocSTm 5 μM, peptide 50 μM; for Average Tm of DocSTm in the presence of peptide: pH 8.0, average ± SD, replicates 3-48 (Table S3)
How it was run: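 Thermal shift with 5 μM recombinant Doc toxin and 50 μM Phd peptides in 20 mM K2HPO4, 50 mM (NH4)2SO4, pH 8.0, SYPRO Orange 3×, ramped 25–95 °C. Tm from Boltzmann fit; ΔTm is peptide-bound minus free DocSTm Tm, triplicates.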

[1] = system: DocSTm (phosphorylation of EF-TuSTm); experiment: Dot blot EF-Tu phosphorylation assay; type: biochemical, Salmonella Typhimurium; conditions: DocSTm 1 μM, EF-TuSTm 3 μM, peptide 10 μM to 5 nM (3-fold dilutions), 16 h RT, dot blot anti-phosphothreonine; compared at three times the DocSTm concentration; two independent experiments
Description: Samples were prepared in assay buffer [50 mM HEPES (pH 7.5), 25 mM (NH4)2SO4, 2 mM TCEP, 2 mM MgCl2, and 1 mM ATP] with a final concentration of recombinant Doc at 1 μM, recombinant EF-Tu at 3 μM, and varying concentrations of synthetic Phd peptides (final concentrations: 10 μM to 5 nM). EF-Tu (3 μM) in assay buffer was used as a negative control (no Doc and Phd peptide), while EF-Tu (3 μM) with Doc (1 μM) in assay buffer was used as a positive control (no Doc inhibitor). The final sample volume was 10 μL. Samples were incubated for 16 h at RT and subsequently spotted on a nitrocellulose membrane. Phosphorylated EF-Tu was detected by immunodecoration using a rabbit monoclonal antiphosphothreonine antibody (Abcam, ab218195) at 1:2000 dilution (1 h at 4 °C), followed by incubation with a goat antirabbit IgG (H + L) HRP conjugate antibody (Advansta) at 1:10,000 dilution (1 h at RT). Chemiluminescence was developed using the HRP Luminata Kit (Merck, WBLUR0100) and captured with an ImageQuant LAS4000 Western blot imaging system (GE HealthCare). Each peptide was tested in two independent experiments.

E. coli MG1655 = experiment: Peptide uptake in E. coli by flow cytometry; type: cell-based; conditions: 5 μM FAM-labeled peptide in PBS, 2 h, 37 °C, E. coli MG1655, trypan blue quench, mean ± SD
Description: E. coli MG1655 strain was grown in LB medium to an OD600 of around 0.5. Approximately 10^7 cells were washed once with PBS and subsequently incubated with 5 μM of the indicated 5(6)-carboxyfluorescein-labeled Phd^52–73 peptide in PBS (500 μL) for 2 h at 37 °C. Bacteria were washed twice with PBS, and trypan blue (1 mg mL^–1) in PBS was added and incubated for 10 min at RT. Bacteria were washed an additional time with PBS and resuspended in 2 mL of PBS. Flow cytometry analysis was performed using a ThermoFisher Attune NxT and a blue laser (BL1) for fluorescein excitation.

[2] = system: S. typhimurium (14028s) glmS::mCherry strain; experiment: Peptide uptake in S. typhimurium by flow cytometry; type: cell-based; conditions: 10 μM FAM-labeled peptide, RT
Description: S. typhimurium (14028s) glmS::mCherry strain was grown overnight in LB medium containing 1% glucose. The culture was then diluted to an OD600 of approximately 0.1 into 200 μL of fresh M9 minimal medium supplemented with 0.5% arabinose containing 2 or 10 μM of the indicated 5(6)-carboxyfluorescein-labeled Phd^52–73 peptide. The samples were incubated on the bench at RT for 4 or 22 h with no access to light. Bacteria were then spun down, washed with 1 mL of PBS solution, and finally resuspended in 1 mL of PBS solution for flow cytometry analysis (BD LSR II). Constitutively expressed mCherry was used to discriminate bacteria from the debris in each sample.

| SMILES | Average Tm of DocSTm in the presence of peptide (DocSTm toxin) [°C] | Inhibition of EF-TuSTm phosphorylation by DocSTm (concentration needed for full inhibition) [1] | also measured |
| --- | --- | --- | --- |
| CCCC[C@H](NC(=O)[C@H](Cc1c[nH]c2ccccc12)NC(C)=O)C(=O)N[C@@H](CCCNC(=N)N)C(=O)N[C@@H](CC(N)=O)C(=O)N[C@@H](CCC(=O)O)C(=O)N[C@@H](Cc1ccccc1)C(=O)N[C@@H](CCCNC(=N)N)C(=O)N[C@@H](C)C(=O)N[C@H](C(=O)N[C@@H](CCCC)C(=O)N[C@@H](CCCNC(=N)N)C(=O)N[C@H](C(=O)N[C@@H](Cc1c[nH]cn1)C(=O)NCC(=O)N[C@@]1(C)CCCC=CCCC[C@@](C)(C(=O)N[C@@H](CC(C)C)C(=O)N[C@@H](C)C(=O)N[C@@H](CC(N)=O)C(=O)N[C@@H](CCCCN)C(=O)O)NC(=O)[C@H](CCCNC(=N)N)NC(=O)[C@H](CC(C)C)NC(=O)[C@H](CCC(N)=O)NC1=O)C(C)C)[C@@H](C)CC [Peptide 29] (Ac-W[Nle]RNEFRAI[Nle]RVHG[S5]QLR[S5]LANK-OH; staple 15-19) | 61.6 ± 0.3 | required a higher concentration for full DocSTm inhibition | – |
| CCCC[C@H](NC(=O)[C@H](Cc1c[nH]c2ccccc12)NC(=O)c1ccc2c(c1)C(=O)OC21c2ccc(O)cc2Oc2cc(O)ccc21)C(=O)N[C@@H](CCCNC(=N)N)C(=O)N[C@@H](CC(=O)O)C(=O)N[C@@H](CCC(=O)O)C(=O)N[C@@H](Cc1ccccc1)C(=O)N[C@@H](C)C(=O)N[C@@H](C)C(=O)N[C@H](C(=O)N[C@@H](CCCC)C(=O)N[C@@H](CCCNC(=N)N)C(=O)N[C@H](C(=O)N[C@@H](Cc1c[nH]cn1)C(=O)NCC(=O)N[C@@H](CC(N)=O)C(=O)N[C@@H](CCC(=O)O)C(=O)N[C@@H](CC(C)C)C(=O)N[C@@H](CCCNC(=N)N)C(=O)N[C@@H](CCC(=O)O)C(=O)N[C@@H](CC(C)C)C(=O)N[C@@H](C)C(=O)N[C@@H](CC(=O)O)C(=O)N[C@@H](CCCCN)C(=O)O)C(C)C)[C@@H](C)CC [FAM-16] (5FAM-W[Nle]RDEFAAI[Nle]RVHGNELRELADK-OH) | – | – | Cellular uptake into E. coli (penetration efficiency) (E. coli MG1655): 7–14% |
| CCCC[C@H](NC(=O)[C@H](Cc1c[nH]c2ccccc12)NC(C)=O)C(=O)N[C@@H](CC(=O)O)C(=O)N[C@@H](CC(N)=O)C(=O)N[C@@H](CCC(=O)O)C(=O)N[C@@H](Cc1ccccc1)C(=O)N[C@@H](C)C(=O)N[C@@H](C)C(=O)N[C@H](C(=O)N[C@@H](CCCC)C(=O)N[C@@H](C)C(=O)N[C@H](C(=O)N[C@@H](Cc1c[nH]cn1)C(=O)NCC(=O)N[C@@H](CCCNC(=N)N)C(=O)N[C@@H](CCC(N)=O)C(=O)N[C@@H](CC(C)C)C(=O)N[C@@H](CCCNC(=N)N)C(=O)N[C@@H](CCCNC(=N)N)C(=O)N[C@@H](CC(C)C)C(=O)N[C@@H](C)C(=O)N[C@@H](CCCNC(=N)N)C(=O)N[C@@H](CCCCN)C(=O)O)C(C)C)[C@@H](C)CC [Peptide 32] (Ac-W[Nle]DNEFAAI[Nle]AVHGRQLRRLARK-OH) | 62.6 ± 1.2 | close to the activity of peptide 1 | – |
| CCCC[C@H](NC(=O)[C@H](Cc1c[nH]c2ccccc12)NC(C)=O)C(=O)N[C@@H](CC(=O)O)C(=O)N[C@@H](CC(N)=O)C(=O)N[C@@H](CCC(=O)O)C(=O)N[C@@H](Cc1ccccc1)C(=O)N[C@@H](C)C(=O)N[C@@H](C)C(=O)N[C@H](C(=O)N[C@@H](CCCC)C(=O)N[C@@H](C)C(=O)N[C@H](C(=O)N[C@@H](Cc1c[nH]cn1)C(=O)NCC(=O)N[C@@H](CCCNC(=N)N)C(=O)N[C@@H](CCC(N)=O)C(=O)N[C@@H](CC(C)C)C(=O)N[C@@H](CCCNC(=N)N)C(=O)N[C@@H](CCCNC(=N)N)C(=O)N[C@@H](CC(C)C)C(=O)N[C@@H](C)C(=O)N[C@@H](CC(N)=O)C(=O)N[C@@H](CCCCN)C(=O)O)C(C)C)[C@@H](C)CC [Peptide 30] (Ac-W[Nle]DNEFAAI[Nle]AVHGRQLRRLANK-OH) | 56.7 ± 2.6 | higher than three times the DocSTm concentration | ΔTm (thermal shift) of DocSTm in the presence of peptide (DocSTm toxin; SYPRO Orange 3×, 20 mM K2HPO4, 50 mM (NH4)2SO4, pH 8.0, average Tm with peptide minus average Tm of free DocSTm, mean ± SD): ≈ 14 °C |
| CCCC[C@H](NC(=O)[C@H](Cc1c[nH]c2ccccc12)NC(=O)c1ccc2c(c1)C(=O)OC21c2ccc(O)cc2Oc2cc(O)ccc21)C(=O)N[C@@H](CC(N)=O)C(=O)N[C@@H](CC(N)=O)C(=O)N[C@@H](CCC(=O)O)C(=O)N[C@@H](Cc1ccccc1)C(=O)N[C@@]1(C)CCCC=CCCC[C@@](C)(C(=O)N[C@H](C(=O)N[C@@H](Cc2c[nH]cn2)C(=O)NCC(=O)N[C@@H](CCCNC(=N)N)C(=O)N[C@@H](CCC(N)=O)C(=O)N[C@@H](CC(C)C)C(=O)N[C@@H](CCCNC(=N)N)C(=O)N[C@@H](CCCNC(=N)N)C(=O)N[C@@H](CC(C)C)C(=O)N[C@@H](C)C(=O)N[C@@H](CCCNC(=N)N)C(=O)N[C@@H](CCCCN)C(=O)O)C(C)C)NC(=O)[C@H](CCCC)NC(=O)[C@H]([C@@H](C)CC)NC(=O)[C@H](C)NC1=O [FAM-36] (5FAM-W[Nle]NNEF[S5]AI[Nle][S5]VHGRQLRRLARK-OH; staple 7-11) | – | – | Uptake into S. typhimurium (penetration efficiency) ([2]; 4 or 22 h, M9 minimal medium): 9–30%; Uptake into S. typhimurium (% fluorescent cells) ([2]; 22 h): more than 20% |
| CCCC[C@H](NC(=O)[C@H](Cc1c[nH]c2ccccc12)NC(C)=O)C(=O)N[C@@H](CCCNC(=N)N)C(=O)N[C@@H](CC(=O)O)C(=O)N[C@@H](CCC(=O)O)C(=O)N[C@@H](Cc1ccccc1)C(=O)N[C@@H](CCCNC(=N)N)C(=O)N[C@@H](C)C(=O)N[C@H](C(=O)N[C@@H](CCCC)C(=O)N[C@@H](CCCNC(=N)N)C(=O)N[C@H](C(=O)N[C@@H](Cc1c[nH]cn1)C(=O)NCC(=O)N[C@@H](CC(N)=O)C(=O)N[C@@H](CCC(=O)O)C(=O)N[C@@H](CC(C)C)C(=O)N[C@@H](CCCNC(=N)N)C(=O)N[C@@H](CCC(=O)O)C(=O)N[C@@H](CC(C)C)C(=O)N[C@@H](C)C(=O)N[C@@H](CC(=O)O)C(=O)N[C@@H](CCCCN)C(=O)O)C(C)C)[C@@H](C)CC [Peptide 19] (Ac-W[Nle]RDEFRAI[Nle]RVHGNELRELADK-OH) | 62.5 ± 0.9 | fully inhibited | – |
| CCCC[C@H](NC(=O)[C@H](Cc1c[nH]c2ccccc12)NC(C)=O)C(=O)N[C@@H](CC(N)=O)C(=O)N[C@@H](CC(N)=O)C(=O)N[C@@H](CCC(=O)O)C(=O)N[C@@H](Cc1ccccc1)C(=O)N[C@@H](C)C(=O)N[C@@H](C)C(=O)N[C@H](C(=O)N[C@@H](CCCC)C(=O)N[C@@H](C)C(=O)N[C@H](C(=O)N[C@@H](Cc1c[nH]cn1)C(=O)NCC(=O)N[C@@H](CCCNC(=N)N)C(=O)N[C@@H](CCC(N)=O)C(=O)N[C@@H](CC(C)C)C(=O)N[C@@H](CCCNC(=N)N)C(=O)N[C@@H](CCCNC(=N)N)C(=O)N[C@@H](CC(C)C)C(=O)N[C@@H](C)C(=O)N[C@@H](CC(N)=O)C(=O)N[C@@H](CCCCN)C(=O)O)C(C)C)[C@@H](C)CC [Peptide 31] (Ac-W[Nle]NNEFAAI[Nle]AVHGRQLRRLANK-OH) | 61.6 ± 1.9 | higher than three times the DocSTm concentration | – |
